Test results from ChEMBL document CHEMBL5230138, “Design, synthesis, and antiviral activity of a series of CD4-mimetic small-molecule HIV-1 entry inhibitors” (Bioorg Med Chem, 2021).

Tested on: not listed separately
Test: Selectivity index, ratio of CC50 for HIV1 human TZM-bl cells to EC50 for HIV1 ENV pseudotype from the lab-adapted CXCR4-tropic HIV-1 HXB-2 infected in human TZM-bl cells
Format: toxicity, cell-based
Conditions: TZM-bl cells, read-out: Selectivity Index

Compared with `CC(C)(N)[C@@H](NC(=O)c1ccc(-c2ccc(C(F)(F)F)cc2)[nH]1)c1nc(CO)cs1`, `CC(C)(N)[C@H](NC(=O)c1ccc(-c2ccc(C(F)(F)F)cc2)[nH]1)c1ncc(CO)s1` is higher in selectivity ratio: 15.3 for the first, 109 for the second.

First: Cc1cc(-c2ccc(C(F)(F)F)c(F)c2)[nH]c1C(=O)N[C@H](CN)c1nc(CO)cs1
Second: Cc1cc(-c2ccc(C(F)(F)F)c(F)c2)[nH]c1C(=O)N[C@@H](CN)c1nc(CO)cs1
The selectivity ratio of the first is lower: 20.6 for the first, 24.7 for the second.

Compared with `NC[C@H](NC(=O)c1ccc(-c2ccc(C(F)(F)F)c(F)c2)[nH]1)c1nc(CCCO)cs1`, `NC[C@@H](NC(=O)c1ccc(-c2ccc(C(F)(F)F)c(F)c2)[nH]1)c1nc(CCCO)cs1` is lower in selectivity ratio: 90.4 for the first, 10.8 for the second.

Going from `NC[C@H](NC(=O)c1ccc(-c2ccc(C(F)(F)F)c(F)c2)[nH]1)c1nc(CCO)cs1` to `COC(=O)c1csc([C@@H](CN)NC(=O)c2ccc(-c3ccc(C(F)(F)F)c(F)c3)[nH]2)n1`, the selectivity ratio falls from 122 to 4.8.

Compared with `NC[C@H](NC(=O)c1ccc(-c2ccc(C(F)(F)F)cc2F)[nH]1)c1nc(CO)cs1`, `NC[C@H](NC(=O)c1ccc(-c2cc(F)c(Cl)c(F)c2)[nH]1)c1nc(CCO)cs1` is higher in selectivity ratio: 137 for the first, 218 for the second.

First: NC[C@@H](NC(=O)c1ccc(-c2ccc(C(F)(F)F)c(F)c2)[nH]1)c1ncc(C(O)CO)s1 (stereo partly drawn)
Second: NC[C@H](NC(=O)c1ccc(-c2ccc(C(F)(F)F)c(F)c2)[nH]1)c1ncc(C(O)CO)s1 (stereo partly drawn)
The selectivity ratio of the first is higher: 119 for the first, 15.8 for the second.

Going from `CC(C)(N)[C@@H](NC(=O)c1ccc(-c2cc(F)c(Cl)c(F)c2)[nH]1)c1nc(CO)cs1` to `CC(C)(N)[C@H](NC(=O)c1ccc(-c2cc(F)c(Cl)c(F)c2)[nH]1)c1nc(CO)cs1`, the selectivity ratio falls from 135 to 105.

Going from `CC(C)(N)[C@@H](NC(=O)c1ccc(-c2ccc(C(F)(F)F)cc2)[nH]1)c1ncc(CO)s1` to `NC[C@@H](NC(=O)c1ccc(-c2ccc(C(F)(F)F)cc2)[nH]1)c1ncc(COCC(O)CO)s1` (stereo partly drawn), the selectivity ratio rises from 34 to 38.

Tested on: Human immunodeficiency virus 1
Test: Antiviral activity against HIV1 Env pseudotype from the lab-adapted CXCR4-tropic HIV-1 HXB-2 infected in human TZM-bl cells preincubated for 30 min followed by viral infection and measured after 3 days by luciferase-based single-cycle infection assay
Format: functional, organism-based
Conditions: Human immunodeficiency virus 1, HXB-2, TZM-bl; read-out: IC50

Compared with `Cc1cc(-c2ccc(C(F)(F)F)c(F)c2)[nH]c1C(=O)N[C@H](CN)c1ncc(CO)s1`, `Cc1cc(-c2ccc(C(F)(F)F)c(F)c2)[nH]c1C(=O)N[C@H](CN)c1nc(CO)cs1` is 2.7-fold higher in IC50: 0.21 µM for the first, 0.57 µM for the second. The first is the more potent here.

Going from `CC(C)(N)[C@@H](NC(=O)c1ccc(-c2ccc(C(F)(F)F)cc2)[nH]1)c1nc(CO)cs1` to `CC(C)(N)[C@H](NC(=O)c1ccc(-c2ccc(C(F)(F)F)cc2)[nH]1)c1nc(CO)cs1`, the IC50 falls from 1.3 µM to 0.13 µM (10-fold).

Going from `CC(C)(N)[C@H](NC(=O)c1ccc(-c2ccc(C(F)(F)F)cc2)[nH]1)c1ncc(CO)s1` to `CC(C)(N)[C@@H](NC(=O)c1ccc(-c2ccc(C(F)(F)F)cc2)[nH]1)c1ncc(CO)s1`, the IC50 rises from 0.23 µM to 0.68 µM (3-fold). The first is the more potent here.

Compared with `NC[C@H](NC(=O)c1ccc(-c2ccc(C(F)(F)F)c(F)c2)[nH]1)c1nc(CCCO)cs1`, `NC[C@@H](NC(=O)c1ccc(-c2ccc(C(F)(F)F)c(F)c2)[nH]1)c1nc(CCCO)cs1` is 14-fold higher in IC50: 0.25 µM for the first, 3.5 µM for the second.

First: NC[C@H](NC(=O)c1ccc(-c2ccc(C(F)(F)F)c(F)c2)[nH]1)c1nc(CCO)cs1
Second: COC(=O)c1csc([C@@H](CN)NC(=O)c2ccc(-c3ccc(C(F)(F)F)c(F)c3)[nH]2)n1
The IC50 of the first is 24-fold lower: 0.2 µM for the first, 4.9 µM for the second.

First: NC[C@H](NC(=O)c1ccc(-c2ccc(C(F)(F)F)cc2F)[nH]1)c1nc(CO)cs1
Second: Cc1cc(-c2ccc(C(F)(F)F)c(F)c2)[nH]c1C(=O)N[C@@H](CN)c1nc(CO)cs1
The IC50 of the first is 2.9-fold lower: 0.187 µM for the first, 0.54 µM for the second. The first is the more potent here.

Going from `NC[C@@H](NC(=O)c1ccc(-c2ccc(C(F)(F)F)c(F)c2)[nH]1)c1ncc(C(O)CO)s1` (stereo partly drawn) to `NC[C@H](NC(=O)c1ccc(-c2ccc(C(F)(F)F)c(F)c2)[nH]1)c1ncc(C(O)CO)s1` (stereo partly drawn), the IC50 rises from 0.59 µM to 6.2 µM (11-fold). The first is the more potent here.

`CC(C)(N)[C@@H](NC(=O)c1ccc(-c2cc(F)c(Cl)c(F)c2)[nH]1)c1nc(CO)cs1` and `CC(C)(N)[C@H](NC(=O)c1ccc(-c2cc(F)c(Cl)c(F)c2)[nH]1)c1nc(CO)cs1` are within 1.5-fold of each other in IC50: 0.15 µM for the first, 0.12 µM for the second.

First: NC[C@@H](NC(=O)c1ccc(-c2ccc(C(F)(F)F)cc2)[nH]1)c1ncc(COCC(O)CO)s1 (stereo partly drawn)
Second: NC[C@H](NC(=O)c1ccc(-c2cc(F)c(Cl)c(F)c2)[nH]1)c1nc(CCO)cs1
The IC50 of the first is 14-fold higher: 2.1 µM for the first, 0.15 µM for the second. The second is the more potent here.

Tested on: TZM
Test: (§1) Cytotoxicity against human TZM-bl cells assessed as reduction in cell viability incubated for 3 days by MTS assay
Format: toxicity, cell-based
Conditions: tzm, 72 h, time 3 day, read-out: CC50

Compared with `NC[C@H](NC(=O)c1ccc(-c2ccc(C(F)(F)F)cc2F)[nH]1)c1nc(CCO)cs1`, `NC[C@@H](NC(=O)c1ccc(-c2ccc(C(F)(F)F)cc2F)[nH]1)c1nc(CCO)cs1` is 1.7-fold lower in CC50: 39.6 µM for the first, 23.4 µM for the second.

`Cc1cc(-c2ccc(C(F)(F)F)c(F)c2)[nH]c1C(=O)N[C@H](CN)c1ncc(CO)s1` and `Cc1cc(-c2ccc(C(F)(F)F)c(F)c2)[nH]c1C(=O)N[C@H](CN)c1nc(CO)cs1` are within 1.5-fold of each other in CC50: 10.4 µM for the first, 14.1 µM for the second.

`CC(C)(N)[C@@H](NC(=O)c1ccc(-c2ccc(C(F)(F)F)cc2)[nH]1)c1nc(CO)cs1` and `CC(C)(N)[C@H](NC(=O)c1ccc(-c2ccc(C(F)(F)F)cc2)[nH]1)c1nc(CO)cs1` are within 1.5-fold of each other in CC50: 19.9 µM for the first, 17.5 µM for the second.

`CC(C)(N)[C@H](NC(=O)c1ccc(-c2ccc(C(F)(F)F)cc2)[nH]1)c1ncc(CO)s1` and `CC(C)(N)[C@@H](NC(=O)c1ccc(-c2ccc(C(F)(F)F)cc2)[nH]1)c1ncc(CO)s1` are within 1.5-fold of each other in CC50: 25.1 µM for the first, 23.1 µM for the second.

Compared with `NC[C@H](NC(=O)c1ccc(-c2ccc(C(F)(F)F)c(F)c2)[nH]1)c1nc(CCCO)cs1`, `NC[C@@H](NC(=O)c1ccc(-c2ccc(C(F)(F)F)c(F)c2)[nH]1)c1nc(CCCO)cs1` is 1.7-fold higher in CC50: 22.6 µM for the first, 38 µM for the second.

`NC[C@H](NC(=O)c1ccc(-c2ccc(C(F)(F)F)c(F)c2)[nH]1)c1nc(CCO)cs1` and `COC(=O)c1csc([C@@H](CN)NC(=O)c2ccc(-c3ccc(C(F)(F)F)c(F)c3)[nH]2)n1` are within 1.5-fold of each other in CC50: 24.4 µM for the first, 23.4 µM for the second.

`NC[C@H](NC(=O)c1ccc(-c2ccc(C(F)(F)F)cc2F)[nH]1)c1nc(CO)cs1` and `Cc1cc(-c2ccc(C(F)(F)F)c(F)c2)[nH]c1C(=O)N[C@@H](CN)c1nc(CO)cs1` are within 1.5-fold of each other in CC50: 25.7 µM for the first, 18.5 µM for the second.

`NC[C@@H](NC(=O)c1ccc(-c2ccc(C(F)(F)F)c(F)c2)[nH]1)c1ncc(C(O)CO)s1` (stereo partly drawn) and `NC[C@H](NC(=O)c1ccc(-c2ccc(C(F)(F)F)c(F)c2)[nH]1)c1ncc(C(O)CO)s1` (stereo partly drawn) are within 1.5-fold of each other in CC50: 70.5 µM for the first, 98 µM for the second.

`CC(C)(N)[C@@H](NC(=O)c1ccc(-c2cc(F)c(Cl)c(F)c2)[nH]1)c1nc(CO)cs1` and `CC(C)(N)[C@H](NC(=O)c1ccc(-c2cc(F)c(Cl)c(F)c2)[nH]1)c1nc(CO)cs1` are within 1.5-fold of each other in CC50: 15.8 µM for the first, 16 µM for the second.

Tested on: not listed separately
Test: as §1
Format: toxicity, cell-based
Conditions: TZM-bl cells, time 3 day

In the case of `NC[C@@H](NC(=O)c1ccc(-c2ccc(C(F)(F)F)cc2)[nH]1)c1ncc(COCC(O)CO)s1` (stereo partly drawn), the CC50 at 72 h is reported as 80 µM.
